Assay results as given in ChEMBL document CHEMBL4811281, “Identification of aryl sulfonamides as novel and potent inhibitors of NaV1.5” (Bioorg Med Chem Lett, 2021).
Activity calls are given as the source filed them. The rule behind the calls is not given here.

Tests used:
[1] = target: Potassium/sodium hyperpolarization-activated cyclic nucleotide-gated channel 2 (Homo sapiens) (UniProt Q9UL51); assay: Inhibition of HCN2 (unknown origin) by voltage clamp method
[2] = target: 5-hydroxytryptamine receptor 3A (Homo sapiens) (UniProt P46098); assay: Inhibition of 5HT3A channel (unknown origin) by voltage clamp assay
iPSC-CM [3] = assay: Anti-arrythmic activity in human iPSC-derived cardiomyocytes assessed as AP amplitude at 100 nM in presence of 15 to 30 nM ATX-II by current clamp analysis; assay type: functional, cell-based
Homo sapiens [4] = organism: Homo sapiens; assay: Inhibition of GABA channel (unknown origin) by voltage clamp assay
[5] = target: Potassium voltage-gated channel subfamily A member 5 (Homo sapiens) (UniProt P22460); assay: Inhibition of Kv1.5 (unknown origin) by voltage clamp method
[6] = target: Transient receptor potential cation channel subfamily V member 1 (Homo sapiens) (UniProt Q8NER1); assay: Inhibition of TRPV1 (unknown origin) by voltage clamp assay
Homo sapiens [7] = organism: Homo sapiens; assay: Selectivity ratio of IC50 for human Nav1.6 to IC50 for human Nav1.5
Homo sapiens [8] = organism: Homo sapiens; assay: Selectivity ratio of IC50 for human Nav1.1 to IC50 for human Nav1.5
[9] = target: Voltage-dependent T-type calcium channel subunit alpha-1I (Homo sapiens) (UniProt Q9P0X4); assay: Inhibition of Cav3.3 (unknown origin) by voltage clamp assay
Homo sapiens [10] = organism: Homo sapiens; assay: Selectivity ratio of IC50 for human Nav1.2 to IC50 for human Nav1.5
[11] = target: Voltage-gated potassium channel KCNC2 (Homo sapiens) (UniProt Q96PR1); assay: Inhibition of Kv3.2 (unknown origin) by voltage clamp method
Homo sapiens [12] = organism: Homo sapiens; assay: Inhibition of Kv4.2/KChIP2.2 (unknown origin) by voltage clamp method
[13] = target: Potassium/sodium hyperpolarization-activated cyclic nucleotide-gated channel 4 (Homo sapiens) (UniProt Q9Y3Q4); assay: Inhibition of HCN4 (unknown origin) by voltage clamp method
[14] = target: Potassium voltage-gated channel subfamily B member 1 (Homo sapiens) (UniProt Q14721); assay: Inhibition of Kv2.1 (unknown origin) by voltage clamp method
Homo sapiens [15] = organism: Homo sapiens; assay: Selectivity ratio of IC50 for inhibition of human Nav1.5 expressed in HEK293 cells assessed as inhibition of peak current to IC50 for inhibition of human Nav1.5 expressed in HEK293 cells assessed as inhibition of late current; assay type: cell-based
iPSC-CM [16] = assay: Anti-arrythmic activity in human iPSC-derived cardiomyocytes assessed as maximum diastolic membrane potential at 100 nM in presence of 15 to 30 nM ATX-II by current clamp analysis; assay type: functional, cell-based
[17] = target: Voltage-dependent T-type calcium channel subunit alpha-1G (Homo sapiens) (UniProt O43497); assay: Inhibition of Cav3.1 (unknown origin) by voltage clamp assay
[18] = target: Voltage-dependent N-type calcium channel subunit alpha-1B (Homo sapiens) (UniProt Q00975); assay: Inhibition of Cav2.2 (unknown origin) by voltage clamp assay
Cytochrome P450 2C9 = Cytochrome P450 2C9 (Homo sapiens, UniProt P11712); assay: Inhibition of CYP2C9 (unknown origin); assay type: ADME
[19] = Half life in FVB mouse at 1 mg/kg, iv; assay type: ADME, organism-based; settings: in vivo
[20] = Cmax in FVB mouse at 10 mg/kg, po; assay type: ADME, organism-based; set-up: route oral, dose 10 mg/kg; settings: in vivo
Cytochrome P450 3A4 = Cytochrome P450 3A4 (Homo sapiens, UniProt P08684); assay: Inhibition of CYP3A4 (unknown origin); assay type: ADME
[21] = Half life in FVB mouse at 10 mg/kg, po; assay type: ADME, organism-based; settings: in vivo
[22] = target: T1, Sodium channel protein type 2 subunit alpha (Homo sapiens, UniProt Q99250); assay: Inhibition of human Nav1.2 by whole cell voltage clamp analysis
[23] = target: T2, Sodium channel protein type 8 subunit alpha (Homo sapiens, UniProt Q9UQD0); assay: Inhibition of human Nav1.6 expressed in HEK293 cells by sodium influx assay; assay type: cell-based
Cytochrome P450 2D6 = Cytochrome P450 2D6 (Homo sapiens, UniProt P10635); assay: Inhibition of CYP2D6 (unknown origin); assay type: ADME
[24] = target: T3, Sodium channel protein type 5 subunit alpha (Homo sapiens, UniProt Q14524); assay: Inhibition of human Nav1.5 expressed in HEK293 cells by sodium influx assay; assay type: cell-based
[25] = target: T3, Sodium channel protein type 5 subunit alpha; assay: Inhibition of human Nav1.5 expressed in HEK293 cells assessed as inhibition of late channel current at holding potential of -95 mV; assay type: cell-based
[26] = Ratio of drug level in brain to plasma in FVB mouse at 10 mg/kg, po measured after 2 hrs; assay type: ADME, organism-based; settings: read-out: BPR
[27] = target: T2, Sodium channel protein type 8 subunit alpha; assay: Inhibition of human Nav1.6 by V1/2 protocol based analysis
[28] = AUC in FVB mouse at 1 mg/kg, iv; assay type: ADME, organism-based; set-up: dose 1 mg/kg; settings: in vivo
[29] = target: T4, Sodium channel protein type 1 subunit alpha (Homo sapiens, UniProt P35498); assay: Inhibition of human Nav1.1 by V1/2 protocol based analysis
Cytochrome P450 1A2 = Cytochrome P450 1A2 (Homo sapiens, UniProt P05177); assay: Inhibition of CYP1A2 (unknown origin); assay type: ADME
[30] = target: T3, Sodium channel protein type 5 subunit alpha; assay: Inhibition of human Nav1.5 by V1/2 protocol based analysis
[31] = Volume of distribution at steady state in FVB mouse at 1 mg/kg, iv; assay type: ADME, organism-based; settings: in vivo, read-out: Vdss
[32] = Clearance in FVB mouse at 1 mg/kg, iv; assay type: ADME, organism-based; settings: in vivo
[33] = target: T4, Sodium channel protein type 1 subunit alpha; assay: Inhibition of human Nav1.1 expressed in HEK293 cells by sodium influx assay; assay type: cell-based
[34] = target: T4, Sodium channel protein type 1 subunit alpha; assay: Inhibition of human Nav1.1 by whole cell voltage clamp analysis
hERG (KCNH2) = hERG (KCNH2) (Homo sapiens, UniProt Q12809); assay: Inhibition of human ERG at 10 uM by voltage clamp method
[35] = target: T2, Sodium channel protein type 8 subunit alpha; assay: Inhibition of human Nav1.6 by whole cell voltage clamp analysis
[36] = Anti-arrythmic activity in human iPSC-derived cardiomyocytes assessed as shortening of ATX-II induced APD90 prolongation at 100 nM in presence of 15 to 30 nM ATX-II by current clamp analysis; assay type: functional; settings: iPSC-CM
[37] = target: Voltage-dependent L-type calcium channel subunit alpha-1C (Homo sapiens, UniProt Q13936); assay: Inhibition of Cav1.2 (unknown origin) by voltage clamp assay
[38] = target: Kv channel-interacting protein 2/Potassium voltage-gated channel subfamily D member 3 (Homo sapiens, UniProt Q9UK17+Q9NS61); assay: Inhibition of Kv4.3/KChIP2.2 (unknown origin) by voltage clamp method; assay type: protein-complex assay
[39] = AUC in FVB mouse at 10 mg/kg, po; assay type: ADME, organism-based; set-up: dose 10 mg/kg; settings: in vivo
[40] = Oral bioavailability in FVB mouse at 10 mg/kg; assay type: ADME, organism-based; settings: in vivo
[41] = target: T1, Sodium channel protein type 2 subunit alpha; assay: Inhibition of human Nav1.2 by V1/2 protocol based analysis
[42] = target: T3, Sodium channel protein type 5 subunit alpha; assay: Inhibition of human Nav1.5 by automated voltage clamp electrophysiology
[43] = target: Voltage-gated potassium channel, IKs; KCNQ1(Kv7.1)/KCNE1(MinK) (Homo sapiens, UniProt P51787+P15382); assay: Inhibition of KvLQT1/mink (unknown origin) by voltage clamp method; assay type: protein-complex assay
[44] = Anti-arrythmic activity in human iPSC-derived cardiomyocytes assessed as reduction in upstroke velocity dV/dt(Vmax) at 100 nM in presence of 15 to 30 nM ATX-II by current clamp analysis; assay type: functional; settings: iPSC-CM
[45] = target: T3, Sodium channel protein type 5 subunit alpha; assay: Inhibition of human Nav1.5 expressed in HEK293 cells assessed as inhibition of peak channel current at holding potential of -95 mV; assay type: cell-based
Cytochrome P450 2C19 = Cytochrome P450 2C19 (Homo sapiens, UniProt P33261); assay: Inhibition of CYP2C19 (unknown origin); assay type: ADME
Nav1.5 (SCN5A) = Nav1.5 (SCN5A) (Homo sapiens, UniProt Q14524); assay: State dependent inhibition of human Nav1.5 expressed in HEK293 cells assessed as shift in compound IC50 at rested state at membrane potential of -120 mV relative to partially inactivated state at membrane potential of -95 mV; assay type: cell-based; settings: HEK293 cells that express human Nav1.5, read-out: FC
[46] = target: Sodium channel protein type 9 subunit alpha (Homo sapiens, UniProt Q15858); assay: Inhibition of human Nav1.7 expressed in HEK293 cells by sodium flux analysis; assay type: cell-based
[47] = target: T1, Sodium channel protein type 2 subunit alpha; assay: Inhibition of human Nav1.2 expressed in HEK293 cells by sodium influx assay; assay type: cell-based
[48] = Plasma concentration in FVB mouse at 10 mg/kg, po measured after 2 hrs; assay type: ADME, organism-based
[49] = target: T3, Sodium channel protein type 5 subunit alpha; assay: Displacement of [3H]BNZA from Nav1.5 (unknown origin)
[50] = Drug uptake in FVB mouse brain at 10 mg/kg, po measured after 2 hrs; assay type: ADME, organism-based; settings: read-out: Drug uptake
[51] = Inhibition of human Nav1.5 VSD4 R1631A mutant by automated voltage clamp electrophysiology
[52] = Inhibition of human Nav1.5 VSD4 R1622A mutant by automated voltage clamp electrophysiology
[53] = Inhibition of human Nav1.5 VSD4 R1628A mutant by automated voltage clamp electrophysiology
[54] = Intrinsic clearance in mouse liver microsomes; assay type: ADME, Microsome; settings: read-out: CLH
[55] = Inhibition of human Nav1.5 VSD4 R1625A mutant by automated voltage clamp electrophysiology
[56] = Inhibition of human Nav1.5 VSD4 R1634A mutant by automated voltage clamp electrophysiology
[57] = target: Sodium channel protein type 5 subunit alpha (Homo sapiens, UniProt Q14524, R814A); assay: Inhibition of human Nav1.5 VSD2 R814A mutant by automated voltage clamp electrophysiology
[58] = Intrinsic clearance in human liver microsomes; assay type: ADME, Microsome; settings: read-out: CLH

T2 sequence (Q9UQD0 whole entry): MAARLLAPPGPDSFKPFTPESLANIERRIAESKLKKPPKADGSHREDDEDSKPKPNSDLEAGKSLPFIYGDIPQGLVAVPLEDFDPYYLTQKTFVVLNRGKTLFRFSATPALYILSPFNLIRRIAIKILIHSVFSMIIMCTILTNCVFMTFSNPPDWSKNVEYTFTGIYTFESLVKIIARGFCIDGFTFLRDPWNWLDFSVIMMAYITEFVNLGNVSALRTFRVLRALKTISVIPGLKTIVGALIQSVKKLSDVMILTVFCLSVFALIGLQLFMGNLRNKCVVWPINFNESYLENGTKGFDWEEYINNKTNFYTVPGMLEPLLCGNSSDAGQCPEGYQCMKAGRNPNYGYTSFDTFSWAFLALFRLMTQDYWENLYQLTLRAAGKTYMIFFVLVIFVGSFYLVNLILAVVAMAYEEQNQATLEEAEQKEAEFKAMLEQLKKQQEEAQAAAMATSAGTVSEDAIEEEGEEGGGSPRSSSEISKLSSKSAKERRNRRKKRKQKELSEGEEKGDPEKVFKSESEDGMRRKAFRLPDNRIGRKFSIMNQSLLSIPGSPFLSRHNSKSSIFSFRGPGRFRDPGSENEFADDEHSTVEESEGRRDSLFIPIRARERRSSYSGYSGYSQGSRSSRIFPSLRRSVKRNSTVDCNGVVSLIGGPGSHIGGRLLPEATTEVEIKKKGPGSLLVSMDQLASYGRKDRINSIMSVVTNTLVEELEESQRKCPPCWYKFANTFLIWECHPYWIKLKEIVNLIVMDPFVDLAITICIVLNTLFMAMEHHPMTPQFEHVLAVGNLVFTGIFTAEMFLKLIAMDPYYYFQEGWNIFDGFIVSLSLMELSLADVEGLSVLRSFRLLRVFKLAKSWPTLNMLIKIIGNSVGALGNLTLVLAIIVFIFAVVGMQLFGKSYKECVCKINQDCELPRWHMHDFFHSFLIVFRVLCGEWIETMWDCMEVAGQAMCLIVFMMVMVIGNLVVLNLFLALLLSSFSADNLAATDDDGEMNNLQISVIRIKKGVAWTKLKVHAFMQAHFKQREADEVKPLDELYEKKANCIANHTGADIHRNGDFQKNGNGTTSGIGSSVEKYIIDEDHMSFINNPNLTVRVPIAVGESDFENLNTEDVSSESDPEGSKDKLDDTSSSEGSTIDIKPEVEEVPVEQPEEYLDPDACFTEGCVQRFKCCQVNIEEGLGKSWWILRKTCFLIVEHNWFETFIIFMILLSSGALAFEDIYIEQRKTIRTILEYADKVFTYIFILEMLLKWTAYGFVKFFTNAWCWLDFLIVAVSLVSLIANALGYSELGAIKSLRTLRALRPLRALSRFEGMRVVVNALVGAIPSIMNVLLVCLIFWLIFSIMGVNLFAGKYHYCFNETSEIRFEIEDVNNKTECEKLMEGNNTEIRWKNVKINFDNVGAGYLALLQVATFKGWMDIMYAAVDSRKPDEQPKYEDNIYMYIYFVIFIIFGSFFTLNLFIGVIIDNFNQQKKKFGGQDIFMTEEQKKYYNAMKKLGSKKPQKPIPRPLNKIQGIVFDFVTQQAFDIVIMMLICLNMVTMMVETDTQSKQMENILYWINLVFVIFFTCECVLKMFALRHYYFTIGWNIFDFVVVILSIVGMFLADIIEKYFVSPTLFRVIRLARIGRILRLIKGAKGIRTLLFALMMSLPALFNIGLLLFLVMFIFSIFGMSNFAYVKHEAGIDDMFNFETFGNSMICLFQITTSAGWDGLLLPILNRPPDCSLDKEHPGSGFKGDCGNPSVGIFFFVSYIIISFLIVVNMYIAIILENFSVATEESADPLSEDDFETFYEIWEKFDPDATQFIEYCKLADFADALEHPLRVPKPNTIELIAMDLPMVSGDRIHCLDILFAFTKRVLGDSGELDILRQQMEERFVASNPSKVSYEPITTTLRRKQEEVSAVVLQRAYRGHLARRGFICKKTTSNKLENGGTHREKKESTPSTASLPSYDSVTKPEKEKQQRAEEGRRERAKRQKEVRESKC
T3 sequence (Q14524 whole entry): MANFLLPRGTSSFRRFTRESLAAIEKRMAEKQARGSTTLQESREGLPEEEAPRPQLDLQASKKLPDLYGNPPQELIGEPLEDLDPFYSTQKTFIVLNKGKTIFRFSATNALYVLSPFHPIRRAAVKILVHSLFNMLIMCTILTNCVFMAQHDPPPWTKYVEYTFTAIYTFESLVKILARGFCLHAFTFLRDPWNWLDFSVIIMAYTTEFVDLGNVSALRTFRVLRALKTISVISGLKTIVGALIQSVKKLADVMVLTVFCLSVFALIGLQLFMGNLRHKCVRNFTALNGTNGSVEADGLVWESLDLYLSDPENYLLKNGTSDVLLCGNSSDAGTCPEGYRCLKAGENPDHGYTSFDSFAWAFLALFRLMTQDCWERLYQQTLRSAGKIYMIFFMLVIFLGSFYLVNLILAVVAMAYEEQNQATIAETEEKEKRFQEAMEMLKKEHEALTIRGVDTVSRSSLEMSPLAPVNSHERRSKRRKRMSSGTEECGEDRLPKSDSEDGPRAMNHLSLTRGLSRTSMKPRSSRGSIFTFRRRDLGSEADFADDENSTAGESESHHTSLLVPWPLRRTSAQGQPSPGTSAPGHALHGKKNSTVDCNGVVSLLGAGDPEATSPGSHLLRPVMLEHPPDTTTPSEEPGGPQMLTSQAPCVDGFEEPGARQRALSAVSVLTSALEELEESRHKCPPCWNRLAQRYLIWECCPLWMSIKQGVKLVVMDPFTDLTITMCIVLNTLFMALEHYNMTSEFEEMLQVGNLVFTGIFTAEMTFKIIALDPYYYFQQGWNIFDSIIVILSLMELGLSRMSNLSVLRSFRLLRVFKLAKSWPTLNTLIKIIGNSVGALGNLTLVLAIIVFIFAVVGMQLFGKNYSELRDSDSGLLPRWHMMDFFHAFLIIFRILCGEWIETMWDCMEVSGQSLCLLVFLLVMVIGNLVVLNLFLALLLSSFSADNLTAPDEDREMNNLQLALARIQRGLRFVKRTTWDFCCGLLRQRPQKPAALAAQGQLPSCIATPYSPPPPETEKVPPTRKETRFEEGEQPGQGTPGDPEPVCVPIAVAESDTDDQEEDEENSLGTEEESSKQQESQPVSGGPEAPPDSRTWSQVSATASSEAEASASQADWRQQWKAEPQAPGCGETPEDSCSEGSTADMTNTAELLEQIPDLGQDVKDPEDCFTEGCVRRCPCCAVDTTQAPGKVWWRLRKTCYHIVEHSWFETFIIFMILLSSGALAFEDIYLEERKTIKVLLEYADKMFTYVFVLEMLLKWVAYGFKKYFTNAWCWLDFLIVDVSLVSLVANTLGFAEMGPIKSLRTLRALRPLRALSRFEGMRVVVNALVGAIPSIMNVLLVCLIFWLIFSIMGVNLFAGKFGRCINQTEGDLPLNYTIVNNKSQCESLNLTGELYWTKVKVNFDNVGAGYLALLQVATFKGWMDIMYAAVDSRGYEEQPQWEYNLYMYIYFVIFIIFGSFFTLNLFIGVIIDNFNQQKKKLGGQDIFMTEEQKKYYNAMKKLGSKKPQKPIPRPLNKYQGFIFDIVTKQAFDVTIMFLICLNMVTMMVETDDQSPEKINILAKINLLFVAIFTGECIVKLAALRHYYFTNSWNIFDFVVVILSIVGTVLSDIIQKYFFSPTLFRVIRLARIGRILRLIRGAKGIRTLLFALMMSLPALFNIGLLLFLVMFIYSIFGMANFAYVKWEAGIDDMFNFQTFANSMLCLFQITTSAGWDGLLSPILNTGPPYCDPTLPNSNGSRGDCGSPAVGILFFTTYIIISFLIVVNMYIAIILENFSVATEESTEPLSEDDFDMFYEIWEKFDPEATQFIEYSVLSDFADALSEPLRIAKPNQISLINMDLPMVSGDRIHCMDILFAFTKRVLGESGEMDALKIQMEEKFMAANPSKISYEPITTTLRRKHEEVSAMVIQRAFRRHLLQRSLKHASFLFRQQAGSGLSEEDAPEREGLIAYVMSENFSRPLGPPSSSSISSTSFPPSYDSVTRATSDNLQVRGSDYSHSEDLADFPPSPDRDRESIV
Chain of Cytochrome P450 2D6 (P10635 whole entry): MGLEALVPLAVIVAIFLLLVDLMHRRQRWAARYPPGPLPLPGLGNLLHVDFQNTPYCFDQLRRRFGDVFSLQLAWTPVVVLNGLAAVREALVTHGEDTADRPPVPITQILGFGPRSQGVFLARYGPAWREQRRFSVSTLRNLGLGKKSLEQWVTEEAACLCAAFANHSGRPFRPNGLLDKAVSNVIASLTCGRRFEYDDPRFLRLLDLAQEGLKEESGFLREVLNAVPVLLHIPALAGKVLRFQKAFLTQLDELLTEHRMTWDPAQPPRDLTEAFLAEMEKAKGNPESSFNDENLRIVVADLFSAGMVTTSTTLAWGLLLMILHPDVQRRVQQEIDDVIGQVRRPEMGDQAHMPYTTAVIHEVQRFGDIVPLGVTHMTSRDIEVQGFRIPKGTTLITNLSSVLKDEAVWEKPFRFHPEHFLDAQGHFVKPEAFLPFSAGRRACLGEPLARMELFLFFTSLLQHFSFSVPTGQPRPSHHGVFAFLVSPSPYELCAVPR
Chain of Cytochrome P450 2C9 (P11712 whole entry): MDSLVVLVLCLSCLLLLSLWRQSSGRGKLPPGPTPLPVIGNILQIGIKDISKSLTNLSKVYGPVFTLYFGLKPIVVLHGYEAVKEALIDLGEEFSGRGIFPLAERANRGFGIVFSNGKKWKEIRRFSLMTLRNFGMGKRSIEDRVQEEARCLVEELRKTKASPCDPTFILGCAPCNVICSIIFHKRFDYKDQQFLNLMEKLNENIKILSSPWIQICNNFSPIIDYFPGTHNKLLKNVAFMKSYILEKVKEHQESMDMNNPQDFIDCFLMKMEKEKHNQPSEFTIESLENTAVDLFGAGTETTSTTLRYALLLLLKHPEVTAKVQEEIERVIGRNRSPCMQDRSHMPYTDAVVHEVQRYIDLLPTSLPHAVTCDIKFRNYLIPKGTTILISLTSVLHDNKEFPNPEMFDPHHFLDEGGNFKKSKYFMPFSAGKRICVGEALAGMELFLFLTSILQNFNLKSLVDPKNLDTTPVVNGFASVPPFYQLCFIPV

## O=S(=O)(Nc1cccc(F)n1)c1cc(F)c(O[C@H]2CCN(CC(F)(F)F)C[C@@H]2c2ccc(F)c(F)c2)c(F)c1 (stereo in doubt; (-)-6) [listing 1 of 2 here]
[1]
  inhibition: inactive
[2]
  inhibition: inactive
iPSC-CM [3]
  Activity: inactive
Homo sapiens [4]
  inhibition: inactive
[5]
  inhibition: inactive
[6]
  inhibition: inactive
Homo sapiens [7]
  Ratio IC50: 6
Homo sapiens [8]
  Ratio IC50: 16
[9]
  inhibition: inactive
Homo sapiens [10]
  Ratio IC50: 7
[11]
  inhibition: inactive
Homo sapiens [12]
  inhibition: inactive
[13]
  inhibition: inactive
[14]
  inhibition: inactive
Homo sapiens [15]
  Ratio IC50: 1.1
iPSC-CM [16]
  Activity: inactive
[17]
  inhibition: inactive
[18]
  inhibition: inactive

## O=S(=O)(Nc1cccc(F)n1)c1cc(F)c(O[C@H]2CCN(CC(F)(F)F)C[C@@H]2c2ccc(F)c(F)c2)c(F)c1 (stereo in doubt; (-)-6) [listing 2 of 2 here]
Cytochrome P450 2C9
  IC50: 2200 nM
[19]
  half-life: 2.6 h
[20]
  Cmax: 3.6 µM
Cytochrome P450 3A4
  inhibition (INH): Not Active
[21]
  half-life: 2.7 h
[22]
  IC50: 270 nM
[23]
  IC50: 110 nM
Cytochrome P450 2D6
  inhibition (INH): Not Active
[24]
  IC50: 44 nM
[25]
  IC50: 15.8 nM
[26]
  Kp at 2 h: 0.32
[27]
  IC50: 110 nM
[28]
  AUC: 7.6 µM·h
[29]
  IC50: 90 nM
Cytochrome P450 1A2
  inhibition (INH): Not Active
[30]
  IC50: 110 nM
[31]
  Vd: 0.8 L/kg
[32]
  clearance: 3.8 mL/min/kg
[33]
  IC50: 560 nM
[34]
  IC50: 620 nM
hERG (KCNH2)
  inhibition at 10 µM: 5%
[35]
  IC50: 230 nM
[36]
  inhibition at 0.1 µM: 84%
[37]
  inhibition (INH): Not Active
[38]
  inhibition (INH): Not Active
[39]
  AUC: 30 µM·h
[40]
  bioavailability: 39%
[41]
  IC50: 12 nM
[42]
  IC50: 39 nM
[43]
  inhibition (INH): Not Active
[44]
  inhibition at 0.1 µM: 23%
[45]
  IC50: 17.7 nM
Cytochrome P450 2C19
  inhibition (INH): Not Active
Nav1.5 (SCN5A)
  selectivity ratio: 24
[46]
  IC50: 220 nM
[47]
  IC50: 270 nM
[48]
  concentration at 2 h: 6.44 µM
[49]
  Ki: 370 nM
[50]
  concentration at 2 h: 2.03 µM

## O=S(=O)(Nc1cccc(F)n1)c1cc(F)c(O[C@H]2CCN(CC(F)(F)F)C[C@@H]2c2ccccc2)cc1F (racemic)
[51]
  IC50: 570 nM
[52]
  IC50: 1290 nM
[53]
  IC50: 820 nM
[54]
  CLint scaled: 70 mL/min/kg
[55]
  IC50: 810 nM
[56]
  IC50: 1210 nM
[42]
  IC50: 700 nM
[57]
  IC50: 410 nM
[58]
  CLint scaled: 16 mL/min/kg
